We go through two molecules from publication PMC8070144, “The YfkO Nitroreductase from Bacillus Licheniformis on Gold-Coated Superparamagnetic Nanoparticles: Towards a Novel Directed Enzyme Prodrug Therapy Approach” (Pharmaceutics, 2021).

As a reminder, the Km is the substrate concentration at which the rate is half of its maximum.

The target in test [1] is T1, NfnB-cys (Escherichia coli, UniProt P38489).
T1 construct: gene nfsB; recombinant, pET28a(+) in E. coli Rosetta BL21(DE3) (printed B21 DE3); N-terminal Cys tag and His tag kept; Ni IMAC, FMN-saturated, PD10 desalted
Put plainly: UV-Vis spectra with time, NADH oxidation at […] nm. Format: biochemical. Particulars: free enzyme; CB1954 100 µM; 50 mM phosphate pH 7.2; methods print NADPH, results print NADH.

Test [2] addresses T1, NfnB-cys. Put plainly: UV-Vis spectra with time, product at […] nm. Type of test: biochemical. The note with it: free enzyme; CB1954 100 µM; 50 mM phosphate pH 7.2; cofactor NADH in results (NADPH 300 µM in methods).
Test [3] concerns T2, YfkO-cys.
T2 construct: recombinant, pET28a(+) in E. coli Rosetta BL21(DE3) (printed B21 DE3); N-terminal Cys tag and His tag kept; Ni IMAC, FMN-saturated, PD10 desalted
Nature of the test: absorbance at […] nm, hydroxylamine product formation, plate reader. Type of test: biochemical, Bacillus licheniformis. The note with it: free enzyme; NADH 400 µM; 50 mM phosphate pH 7.2; 37 °C; CB1954 0.1-10 mM.

T1 sequence (P38489 whole entry): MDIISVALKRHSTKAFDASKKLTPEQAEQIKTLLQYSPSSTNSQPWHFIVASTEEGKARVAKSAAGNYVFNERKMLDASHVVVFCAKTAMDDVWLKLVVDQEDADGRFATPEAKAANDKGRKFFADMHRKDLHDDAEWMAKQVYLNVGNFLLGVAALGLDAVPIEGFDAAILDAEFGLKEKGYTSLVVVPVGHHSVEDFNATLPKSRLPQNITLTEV

On to `NC(=O)C1=CN([C@@H]2O[C@H](COP(=O)(O)OP(=O)(O)OC[C@H]3O[C@@H](n4cnc5c(N)ncnc54)[C@H](O)[C@@H]3O)[C@@H](O)[C@H]2O)C=CC1` [NADH], for which, in test [1], the “UV-Vis spectra with time, NADH oxidation at 340 nm” value is “scans obtained for NfnB-cys, free and immobilised, were almost identical to these”.

With `NC(=O)c1cc(N2CC2)c([N+](=O)[O-])cc1[N+](=O)[O-]` [compound 1, 5-(aziridin-1-yl)-2,4-dinitrobenzamide], the “UV-Vis spectra with time, product at 420 nm” value in test [2] was “scans obtained for NfnB-cys, free and immobilised, were almost identical to these”. In test [3], the Michaelis-Menten constant (Km) is 830 ± 250 µM.
